# Data from patent US20260007131A1, “HERBICIDAL COMPOSITION CONTAINING DIFLUOROBUTENOIC ACID AMIDE COMPOUND” (ISHIHARA SANGYO KAISHA, LTD., priority 2022, published 2026).
# Experiments:
# Assay type in all cases: in vivo
# [1] = tested on: mexican burningbush (Kochia scoparia); experiment: Herbicidal effect on mexican burningbush (soil treatment); details: Bassia scoparia, 14th day, read-out: growth inhibition rate
# From the text: Upland soil was put into a 1/300,000 hectare (ha) pot, seeds of barnyardgrass (Echinochloa crus-galli) were sown, and about 1.5 cm of cover soil was put. The Invention Compound was weighed to achieve a predetermined active ingredient amount, dissolved in acetone (containing 0.5 vol % of surfactant (TritonX-100: manufactured by Kishida Chemical Co., Ltd.)) or dimethyl sulfoxide and diluted with water (containing 0.1 vol % of agricultural spreader (Surfactant WK: manufactured by MARUWA Biochemical Co., Ltd.)) in an amount corresponding to 1,000 liter per hectare, to prepare a spray solution. On the next day after sowing, the spray solution was sprayed with a small sprayer for soil treatment.
# On the 14th day after the soil treatment, the state of growth of each plant was visually observed.
# To confirm herbicidal effect on mexican burningbush (Kochia scoparia), the same test as in Test Example 2 (2-1) (soil treatment) was conducted using the following compounds.
# [2] = tested on: redroot pigweed (Amaranthus retroflexus); experiment: Herbicidal effect on redroot pigweed (soil treatment)
# From the text: (§1) Upland soil was put into a 1/300,000 hectare (ha) pot, seeds of barnyardgrass (Echinochloa crus-galli) were sown, and about 1.5 cm of cover soil was put. […] On the next day after sowing, the spray solution was sprayed with a small sprayer for soil treatment.
# (§2) Upland soil was put into a 1/300,000 hectare (ha) pot, seeds of barnyardgrass (Echinochloa crus-galli), crabgrass (Digitaria sanguinalis), green foxtail (Setaria viridis), Italian ryegrass (Lolium multiflorum), redroot pigweed (Amaranthus retroflexus) and common chickweed (Stellaria media) were sown, and about 1.5 cm of cover soil was put.
# [3] = tested on: crabgrass (Digitaria sanguinalis); experiment: Herbicidal effect on crabgrass (soil treatment)
# From the text: as §1, §2
# [4] = tested on: common chickweed (Stellaria media); experiment: Herbicidal effect on common chickweed (foliar treatment)
# Procedure: (§3) Upland soil was put into a 1/300,000 hectare (ha) pot, seeds of barnyardgrass (Echinochloa crus-galli) were sown, and about 1.5 cm of cover soil was put. The barnyardgrass was grown for 10 days in a greenhouse until it reached a predetermined leaf stage. […] The spray solution was sprayed over the grown barnyardgrass with a small sprayer for foliar treatment.
# (§4) Upland soil was put into a 1/300,000 hectare (ha) pot, seeds of barnyardgrass (Echinochloa crus-galli), crabgrass (Digitaria sanguinalis), green foxtail (Setaria viridis), wild oat (Avena fatua), Italian ryegrass (Lolium multiflorum), foxtail shortawn (Alopecurus aequalis), annual bluegrass (Poa annua), redroot pigweed (Amaranthus retroflexus), common chickweed (Stellaria media) common lambsquarters (Chenopodium album) and black nightshade (Solanum nigrum) were sown, and about 1.5 cm of cover soil was put. The plants were grown for 10 days in a greenhouse until they reached a predetermined leaf stage.
# [5] = tested on: Italian ryegrass (Lolium multiflorum); experiment: Herbicidal effect on Italian ryegrass (foliar treatment)
# Procedure: as §3, §4
# [6] = tested on: green foxtail (Setaria viridis); experiment: Herbicidal effect on green foxtail (foliar treatment)
# Procedure: as §3, §4
# [7] = tested on: common chickweed (Stellaria media); experiment: Comparative Test 2: herbicidal effect on common chickweed (soil treatment); details: Comparative Test 2, common chickweed, read-out: Growth inhibition rate
# From the text: Upland soil was put into a 1/300,000 hectare (ha) pot, seeds of barnyardgrass (Echinochloa crus-galli), crabgrass (Digitaria sanguinalis), green foxtail (Setaria viridis), Italian ryegrass (Lolium multiflorum), redroot pigweed (Amaranthus retroflexus) and common chickweed (Stellaria media) were sown, and about 1.5 cm of cover soil was put. The Invention Compound (Aa-1-1, Aa-9-2) or the compound 4b described in Patent Document 1 was weighed to achieve a predetermined active ingredient dose, dissolved in acetone (containing 0.5 vol % of surfactant (TritonX-100: manufactured by Kishida Chemical Co., Ltd.)) or dimethyl sulfoxide and diluted with water (containing 0.1 vol % of agricultural spreader (Surfactant WK: manufactured by MARUWA Biochemical Co., Ltd.) in an amount corresponding to 1,000 liter per hectare, to prepare each spray solution. On the next day after sowing, each spray solution was sprayed with a small sprayer for soil treatment. On the 14th day after the soil treatment, the state of growth of each plant was visually observed, and the herbicidal effect was evaluated in accordance with the growth inhibition rate (%) of from 0 (equivalent to the non-treated area) to 100 (complete kill).
# [8] = tested on: foxtail shortawn (Alopecurus aequalis); experiment: Herbicidal effect on foxtail shortawn (foliar treatment)
# Procedure: as §3, §4
# [9] = tested on: common lambsquarters (Chenopodium album); experiment: Herbicidal effect on common lambsquarters (foliar treatment)
# Procedure: as §3, §4
# [10] = tested on: barnyardgrass (Echinochloa crus-galli); experiment: Herbicidal effect on barnyardgrass (soil treatment)
# From the text: as §1, §2
# [11] = tested on: redroot pigweed (Amaranthus retroflexus); experiment: Herbicidal effect on redroot pigweed (foliar treatment)
# Procedure: as §3, §4
# [12] = tested on: green foxtail (Setaria viridis); experiment: Herbicidal effect on green foxtail (soil treatment)
# From the text: as §1, §2
# [13] = tested on: crabgrass (Digitaria sanguinalis); experiment: Herbicidal effect on crabgrass (foliar treatment)
# Procedure: as §3, §4
# [14] = tested on: annual bluegrass (Poa annua); experiment: Herbicidal effect on annual bluegrass (foliar treatment)
# Procedure: as §3, §4
# [15] = tested on: barnyardgrass (Echinochloa crus-galli); experiment: Herbicidal effect on barnyardgrass (foliar treatment)
# Procedure: as §3, §4
# [16] = tested on: Italian ryegrass (Lolium multiflorum); experiment: Herbicidal effect on Italian ryegrass (soil treatment); details: Comparative Test 2, Italian ryegrass, read-out: Growth inhibition rate
# From the text: as §1, §2
# [17] = tested on: black nightshade (Solanum nigrum); experiment: Herbicidal effect on black nightshade (foliar treatment)
# Procedure: as §3, §4
# wild oat (Avena fatua) = experiment: Herbicidal effect on wild oat (foliar treatment)
# Procedure: as §3, §4
# [18] = redroot pigweed, 250 g/ha, 14th day, read-out: growth inhibition rate
# [19] = crabgrass, 250 g/ha, 14th day, read-out: growth inhibition rate
# [20] = green foxtail, 250 g/ha, 14th day, read-out: growth inhibition rate
# [21] = barnyardgrass, 250 g/ha, 14th day, read-out: growth inhibition rate
smiles,measurement,setting,value
COC(=O)[C@H]1C[C@@H](NC(=O)C(F)(F)/C=C/c2cc(F)cc(F)c2)C1 [Aa-1-1],inhibition at 250 g/ha,[1],≥ 70%
same,inhibition at 500 g/ha,"[2]; Comparative Test 2, redroot pigweed, 500 g/ha, read-out: Growth inhibition rate",≥ 90%
same,inhibition at 1000 g/ha,"[2]; Comparative Test 2, redroot pigweed, 1000 g/ha, read-out: Growth inhibition rate",≥ 90%
same,inhibition at 250 g/ha,[2]; [18],≥ 70%
same,inhibition at 500 g/ha,"[3]; Comparative Test 2, crabgrass, 500 g/ha, read-out: Growth inhibition rate",≥ 90%
same,inhibition at 1000 g/ha,"[3]; Comparative Test 2, crabgrass, 1000 g/ha, read-out: Growth inhibition rate",≥ 90%
same,inhibition at 250 g/ha,[3]; [19],≥ 70%
same,inhibition at 500 g/ha,"[4]; Comparative Test 1, common chickweed, 500 g/ha, read-out: Growth inhibition rate",≥ 90%
same,inhibition at 1000 g/ha,"[4]; Comparative Test 1, common chickweed, 1000 g/ha, read-out: Growth inhibition rate",≥ 90%
same,inhibition at 250 g/ha,"[4]; common chickweed, 250 g/ha, 14th day, read-out: growth inhibition rate",≥ 70%
same,inhibition at 500 g/ha,"[5]; Comparative Test 1, Italian ryegrass, 500 g/ha, read-out: Growth inhibition rate",≥ 90%
same,inhibition at 1000 g/ha,"[5]; Comparative Test 1, Italian ryegrass, 1000 g/ha, read-out: Growth inhibition rate",≥ 90%
same,inhibition at 250 g/ha,"[5]; Italian ryegrass, 250 g/ha, 14th day, read-out: growth inhibition rate",≥ 70%
same,inhibition at 500 g/ha,"[6]; Comparative Test 1, green foxtail, 500 g/ha, read-out: Growth inhibition rate",≥ 90%
same,inhibition at 1000 g/ha,"[6]; Comparative Test 1, green foxtail, 1000 g/ha, read-out: Growth inhibition rate",≥ 90%
same,inhibition at 250 g/ha,[6]; [20],≥ 70%
same,inhibition at 500 g/ha,[7]; 500 g/ha,≥ 90%
same,inhibition at 1000 g/ha,[7]; 1000 g/ha,≥ 90%
same,inhibition at 500 g/ha,"[8]; Comparative Test 1, foxtail shortawn, 500 g/ha, read-out: Growth inhibition rate",≥ 90%
same,inhibition at 1000 g/ha,"[8]; Comparative Test 1, foxtail shortawn, 1000 g/ha, read-out: Growth inhibition rate",≥ 90%
same,inhibition at 250 g/ha,"[8]; foxtail shortawn, 250 g/ha, 14th day, read-out: growth inhibition rate",≥ 70%
same,inhibition at 500 g/ha,"[9]; Comparative Test 1, common lambsquarters, 500 g/ha, read-out: Growth inhibition rate",70 to 90%
same,inhibition at 1000 g/ha,"[9]; Comparative Test 1, common lambsquarters, 1000 g/ha, read-out: Growth inhibition rate",70 to 90%
same,inhibition at 250 g/ha,"[9]; common lambsquarters, 250 g/ha, 14th day, read-out: growth inhibition rate",≥ 70%
same,inhibition at 500 g/ha,"[10]; Comparative Test 2, barnyardgrass, 500 g/ha, read-out: Growth inhibition rate",≥ 90%
same,inhibition at 1000 g/ha,"[10]; Comparative Test 2, barnyardgrass, 1000 g/ha, read-out: Growth inhibition rate",≥ 90%
same,inhibition at 250 g/ha,[10]; [21],≥ 70%
same,inhibition at 500 g/ha,"[11]; Comparative Test 1, redroot pigweed, 500 g/ha, read-out: Growth inhibition rate",70 to 90%
same,inhibition at 1000 g/ha,"[11]; Comparative Test 1, redroot pigweed, 1000 g/ha, read-out: Growth inhibition rate",70 to 90%
same,inhibition at 250 g/ha,[11]; [18],≥ 70%
same,inhibition at 500 g/ha,"[12]; Comparative Test 2, green foxtail, 500 g/ha, read-out: Growth inhibition rate",≥ 90%
same,inhibition at 1000 g/ha,"[12]; Comparative Test 2, green foxtail, 1000 g/ha, read-out: Growth inhibition rate",≥ 90%
same,inhibition at 250 g/ha,[12]; [20],≥ 70%
same,inhibition at 500 g/ha,"[13]; Comparative Test 1, crabgrass, 500 g/ha, read-out: Growth inhibition rate",≥ 90%
same,inhibition at 1000 g/ha,"[13]; Comparative Test 1, crabgrass, 1000 g/ha, read-out: Growth inhibition rate",≥ 90%
same,inhibition at 250 g/ha,[13]; [19],≥ 70%
same,inhibition at 500 g/ha,"[14]; Comparative Test 1, annual bluegrass, 500 g/ha, read-out: Growth inhibition rate",≥ 90%
same,inhibition at 1000 g/ha,"[14]; Comparative Test 1, annual bluegrass, 1000 g/ha, read-out: Growth inhibition rate",≥ 90%
same,inhibition at 250 g/ha,"[14]; annual bluegrass, 250 g/ha, 14th day, read-out: growth inhibition rate",≥ 70%
same,inhibition at 500 g/ha,"[15]; Comparative Test 1, barnyardgrass, 500 g/ha, read-out: Growth inhibition rate",≥ 90%
same,inhibition at 1000 g/ha,"[15]; Comparative Test 1, barnyardgrass, 1000 g/ha, read-out: Growth inhibition rate",≥ 90%
same,inhibition at 250 g/ha,[15]; [21],≥ 70%
same,inhibition at 500 g/ha,[16]; 500 g/ha,≥ 90%
same,inhibition at 1000 g/ha,[16]; 1000 g/ha,≥ 90%
same,inhibition at 500 g/ha,"[17]; Comparative Test 1, black nightshade, 500 g/ha, read-out: Growth inhibition rate",70 to 90%
same,inhibition at 1000 g/ha,"[17]; Comparative Test 1, black nightshade, 1000 g/ha, read-out: Growth inhibition rate",≥ 90%
same,inhibition at 250 g/ha,"[17]; black nightshade, 250 g/ha, 14th day, read-out: growth inhibition rate",≥ 70%
same,inhibition at 500 g/ha,"wild oat (Avena fatua); Comparative Test 1, wild oat, 500 g/ha, read-out: Growth inhibition rate",≥ 90%
same,inhibition at 1000 g/ha,"wild oat (Avena fatua); Comparative Test 1, wild oat, 1000 g/ha, read-out: Growth inhibition rate",≥ 90%
same,inhibition at 250 g/ha,"wild oat (Avena fatua); wild oat, 250 g/ha, 14th day, read-out: growth inhibition rate",≥ 70%
